Reference: the supplement of paper PMC4862054

What follows are molecules tested on CAL-85-1 (assay: drug sensitivity score (DSS), CellTiter-Blue viability (DSS (AUC-based score)); higher = stronger viability inhibition; extreme values may be limits of the assay). Details: incubation time: 72 h.
Description: (§1)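 DSRT with the CellTiter-Blue (resazurin reduction) viability readout, fluorescence 560/590 nm, 72 h incubation. Plates were normalised to DMSO and benzethonium chloride controls. DSS is computed from the area under the fitted dose-response curve (5 or 9 concentrations).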

Compound | drug sensitivity score
O=C1CCC(N2C(=O)c3ccccc3C2=O)C(=O)N1 (stereo not drawn) [Thalidomide] | 0
C=C(c1ccc(C(=O)O)cc1)c1cc2c(cc1C)C(C)(C)CCC2(C)C [Bexarotene] | 0
CCC1(c2ccc(N)cc2)CCC(=O)NC1=O (stereo not drawn) [Aminoglutethimide] | 0
Clc1ccc(Nc2nnc(Cc3ccncc3)c3ccccc23)cc1 [Vatalanib] | 0
NCC(=O)CCC(=O)O [Aminolevulinic acid] | 0
CCN(CCCOc1ccc2c(Nc3cc(CC(=O)Nc4cccc(F)c4)[nH]n3)ncnc2c1)CCOP(=O)(O)O [Barasertib] | 4.42
CO[C@H]1/C=C\C=C(/C)C(=O)NC2=CC(=O)C(NCCN(C)C)=C(C[C@@H](C)C[C@H](OC)[C@H](O)[C@@H](C)/C=C(\C)[C@@H]1OC(N)=O)C2=O [Alvespimycin] | 13.7
NC(=O)Nc1cc(-c2cccc(F)c2)sc1C(=O)N[C@H]1CCCNC1 [AZD 7762] | 6.01

These molecules were tested on Hs578T in the same assay as above. Details: incubation time: 72 h.
Description: as §1

Compound | drug sensitivity score
Cn1c(CCCC(=O)O)nc2cc(N(CCCl)CCCl)ccc21 [Bendamustine] | 0
COc1cc2nccc(Oc3ccc(NC(=O)C4(C(=O)Nc5ccc(F)cc5)CC4)cc3)c2cc1OC [Cabozantinib] | 0
O=C1CCC(N2C(=O)c3ccccc3C2=O)C(=O)N1 (stereo not drawn) [Thalidomide] | 0
C=C(c1ccc(C(=O)O)cc1)c1cc2c(cc1C)C(C)(C)CCC2(C)C [Bexarotene] | 0
CCC1(c2ccc(N)cc2)CCC(=O)NC1=O (stereo not drawn) [Aminoglutethimide] | 0
Clc1ccc(Nc2nnc(Cc3ccncc3)c3ccccc23)cc1 [Vatalanib] | 0
NCC(=O)CCC(=O)O [Aminolevulinic acid] | 0
CCN(CCCOc1ccc2c(Nc3cc(CC(=O)Nc4cccc(F)c4)[nH]n3)ncnc2c1)CCOP(=O)(O)O [Barasertib] | 7.48
CO[C@H]1/C=C\C=C(/C)C(=O)NC2=CC(=O)C(NCCN(C)C)=C(C[C@@H](C)C[C@H](OC)[C@H](O)[C@@H](C)/C=C(\C)[C@@H]1OC(N)=O)C2=O [Alvespimycin] | 16.5
NC(=O)Nc1cc(-c2cccc(F)c2)sc1C(=O)N[C@H]1CCCNC1 [AZD 7762] | 5.73

What follows are molecules tested on HCC1143 in the same assay as above. Details: incubation time: 72 h.
Description: as §1

Compound | drug sensitivity score
Cn1c(CCCC(=O)O)nc2cc(N(CCCl)CCCl)ccc21 [Bendamustine] | 0
COc1cc2nccc(Oc3ccc(NC(=O)C4(C(=O)Nc5ccc(F)cc5)CC4)cc3)c2cc1OC [Cabozantinib] | 0
O=C1CCC(N2C(=O)c3ccccc3C2=O)C(=O)N1 (stereo not drawn) [Thalidomide] | 0
C=C(c1ccc(C(=O)O)cc1)c1cc2c(cc1C)C(C)(C)CCC2(C)C [Bexarotene] | 0
CCC1(c2ccc(N)cc2)CCC(=O)NC1=O (stereo not drawn) [Aminoglutethimide] | 0
Clc1ccc(Nc2nnc(Cc3ccncc3)c3ccccc23)cc1 [Vatalanib] | 0
NCC(=O)CCC(=O)O [Aminolevulinic acid] | 0
CCN(CCCOc1ccc2c(Nc3cc(CC(=O)Nc4cccc(F)c4)[nH]n3)ncnc2c1)CCOP(=O)(O)O [Barasertib] | 0
CO[C@H]1/C=C\C=C(/C)C(=O)NC2=CC(=O)C(NCCN(C)C)=C(C[C@@H](C)C[C@H](OC)[C@H](O)[C@@H](C)/C=C(\C)[C@@H]1OC(N)=O)C2=O [Alvespimycin] | 11.5
NC(=O)Nc1cc(-c2cccc(F)c2)sc1C(=O)N[C@H]1CCCNC1 [AZD 7762] | 1.6

These molecules were tested on BT-549 in the same assay as above. Details: incubation time: 72 h.
Description: as §1

Compound | drug sensitivity score
Cn1c(CCCC(=O)O)nc2cc(N(CCCl)CCCl)ccc21 [Bendamustine] | 0
COc1cc2nccc(Oc3ccc(NC(=O)C4(C(=O)Nc5ccc(F)cc5)CC4)cc3)c2cc1OC [Cabozantinib] | 0
O=C1CCC(N2C(=O)c3ccccc3C2=O)C(=O)N1 (stereo not drawn) [Thalidomide] | 0
C=C(c1ccc(C(=O)O)cc1)c1cc2c(cc1C)C(C)(C)CCC2(C)C [Bexarotene] | 0
CCC1(c2ccc(N)cc2)CCC(=O)NC1=O (stereo not drawn) [Aminoglutethimide] | 0
Clc1ccc(Nc2nnc(Cc3ccncc3)c3ccccc23)cc1 [Vatalanib] | 0
NCC(=O)CCC(=O)O [Aminolevulinic acid] | 0
CCN(CCCOc1ccc2c(Nc3cc(CC(=O)Nc4cccc(F)c4)[nH]n3)ncnc2c1)CCOP(=O)(O)O [Barasertib] | 5.75
CO[C@H]1/C=C\C=C(/C)C(=O)NC2=CC(=O)C(NCCN(C)C)=C(C[C@@H](C)C[C@H](OC)[C@H](O)[C@@H](C)/C=C(\C)[C@@H]1OC(N)=O)C2=O [Alvespimycin] | 20
NC(=O)Nc1cc(-c2cccc(F)c2)sc1C(=O)N[C@H]1CCCNC1 [AZD 7762] | 1.54

What follows are molecules tested on MFM-223 in the same assay as above. Details: incubation time: 72 h.
Description: as §1

Compound | drug sensitivity score
Cn1c(CCCC(=O)O)nc2cc(N(CCCl)CCCl)ccc21 [Bendamustine] | 0
COc1cc2nccc(Oc3ccc(NC(=O)C4(C(=O)Nc5ccc(F)cc5)CC4)cc3)c2cc1OC [Cabozantinib] | 0
O=C1CCC(N2C(=O)c3ccccc3C2=O)C(=O)N1 (stereo not drawn) [Thalidomide] | 0
C=C(c1ccc(C(=O)O)cc1)c1cc2c(cc1C)C(C)(C)CCC2(C)C [Bexarotene] | 0
CCC1(c2ccc(N)cc2)CCC(=O)NC1=O (stereo not drawn) [Aminoglutethimide] | 0
Clc1ccc(Nc2nnc(Cc3ccncc3)c3ccccc23)cc1 [Vatalanib] | 0
NCC(=O)CCC(=O)O [Aminolevulinic acid] | 0
CCN(CCCOc1ccc2c(Nc3cc(CC(=O)Nc4cccc(F)c4)[nH]n3)ncnc2c1)CCOP(=O)(O)O [Barasertib] | 0
CO[C@H]1/C=C\C=C(/C)C(=O)NC2=CC(=O)C(NCCN(C)C)=C(C[C@@H](C)C[C@H](OC)[C@H](O)[C@@H](C)/C=C(\C)[C@@H]1OC(N)=O)C2=O [Alvespimycin] | 18.7
NC(=O)Nc1cc(-c2cccc(F)c2)sc1C(=O)N[C@H]1CCCNC1 [AZD 7762] | 0

Each molecule was assayed on SK-BR-3 in the same assay as above. Details: incubation time: 72 h.
Description: as §1

Compound | drug sensitivity score
Cn1c(CCCC(=O)O)nc2cc(N(CCCl)CCCl)ccc21 [Bendamustine] | 0.0662
COc1cc2nccc(Oc3ccc(NC(=O)C4(C(=O)Nc5ccc(F)cc5)CC4)cc3)c2cc1OC [Cabozantinib] | 0
O=C1CCC(N2C(=O)c3ccccc3C2=O)C(=O)N1 (stereo not drawn) [Thalidomide] | 0
C=C(c1ccc(C(=O)O)cc1)c1cc2c(cc1C)C(C)(C)CCC2(C)C [Bexarotene] | 0
CCC1(c2ccc(N)cc2)CCC(=O)NC1=O (stereo not drawn) [Aminoglutethimide] | 0
